# Measured values taken from ChEMBL document CHEMBL5150011, “Selection of QPX7831, an Orally Bioavailable Prodrug of Boronic Acid β-Lactamase Inhibitor QPX7728” (J Med Chem, 2021).
# Assay: Oral bioavailability in rat
# Format: ADME, organism-based
# Settings: in vivo
row,Compound,bioavailability [%]
1,O=C(O)c1c(F)ccc2c1OB(O)[C@@H]1C[C@H]21 [XERUBORBACTAM],50

# Assay: Oral bioavailability in dog
# Format: ADME, organism-based, Canis lupus familiaris
# Settings: in vivo
row,Compound,bioavailability [%]
1,O=C(O)c1c(F)ccc2c1OB(O)[C@@H]1C[C@H]21 [XERUBORBACTAM],50

# Assay: Oral bioavailability in monkey
# Format: ADME, organism-based, Macaca mulatta
# Settings: rhesus monkey, in vivo
row,Compound,bioavailability [%]
1,O=C(O)c1c(F)ccc2c1OB(O)[C@@H]1C[C@H]21 [XERUBORBACTAM],20

# Assay: Half life in human serum measured upto 30 min by HPLC analysis
# Format: ADME, cell-free
# Settings: not given
row,Compound,half-life [min]
1,O=C(OCOC(=O)c1c(F)ccc2c1OB(O)[C@@H]1C[C@H]21)OC1CCOCC1,> 30
2,COCCOC(=O)OCOC(=O)c1c(F)ccc2c1OB(O)[C@@H]1C[C@H]21,> 60
3,Cc1oc(=O)oc1COC(=O)c1c(F)ccc2c1OB(O)[C@@H]1C[C@H]21,3.7
4,O=C(OCOC(=O)c1c(F)ccc2c1OB(O)[C@@H]1C[C@H]21)OC1CCCCC1,> 60
5,CCOC(=O)OCOC(=O)c1c(F)ccc2c1OB(O)[C@@H]1C[C@H]21,> 60
6,CC(=O)N1CCC[C@@H]1C(=O)OCOC(=O)c1c(F)ccc2c1OB(O)[C@@H]1C[C@H]21,> 30
7,O=C(OCOC(=O)c1c(F)ccc2c1OB(O)[C@@H]1C[C@H]21)OC1COC1,11
8,CC(=O)OCCOC(=O)OCOC(=O)c1c(F)ccc2c1OB(O)[C@@H]1C[C@H]21,> 30
9,O=C(OCOC(=O)C1CCOCC1)c1c(F)ccc2c1OB(O)[C@@H]1C[C@H]21,26
10,O=C(OCOC(=O)C1COC1)c1c(F)ccc2c1OB(O)[C@@H]1C[C@H]21,3.9
11,O=C(OCOC(=O)C1CC1)c1c(F)ccc2c1OB(O)[C@@H]1C[C@H]21,> 60
12,CC(=O)OCOC(=O)c1c(F)ccc2c1OB(O)[C@@H]1C[C@H]21,> 30
13,CCCC(=O)OCOC(=O)c1c(F)ccc2c1OB(O)[C@@H]1C[C@H]21,> 60
14,CC(C)C(=O)OCOC(=O)c1c(F)ccc2c1OB(O)[C@@H]1C[C@H]21,> 60
15,CN(C)C(=O)COC(=O)c1c(F)ccc2c1OB(O)[C@@H]1C[C@H]21,> 60
16,CN(C)C(=O)COC(=O)OCOC(=O)c1c(F)ccc2c1OB(O)[C@@H]1C[C@H]21,> 60

# Assay: Half life in human liver microsomes measured upto 30 min in presence of NADPH by HPLC analysis
# Format: ADME, Microsome
# Settings: not given
row,Compound,half-life [min]
1,O=C(OCOC(=O)c1c(F)ccc2c1OB(O)[C@@H]1C[C@H]21)OC1CCOCC1,> 30
2,COCCOC(=O)OCOC(=O)c1c(F)ccc2c1OB(O)[C@@H]1C[C@H]21,> 30
3,Cc1oc(=O)oc1COC(=O)c1c(F)ccc2c1OB(O)[C@@H]1C[C@H]21,> 30
4,O=C(OCOC(=O)c1c(F)ccc2c1OB(O)[C@@H]1C[C@H]21)OC1CCCCC1,27
5,CCOC(=O)OCOC(=O)c1c(F)ccc2c1OB(O)[C@@H]1C[C@H]21,> 30
6,CC(=O)N1CCC[C@@H]1C(=O)OCOC(=O)c1c(F)ccc2c1OB(O)[C@@H]1C[C@H]21,> 30
7,O=C(OCOC(=O)c1c(F)ccc2c1OB(O)[C@@H]1C[C@H]21)OC1COC1,> 30
8,CC(=O)OCCOC(=O)OCOC(=O)c1c(F)ccc2c1OB(O)[C@@H]1C[C@H]21,24
9,O=C(OCOC(=O)C1CCOCC1)c1c(F)ccc2c1OB(O)[C@@H]1C[C@H]21,23
10,O=C(OCOC(=O)C1CC1)c1c(F)ccc2c1OB(O)[C@@H]1C[C@H]21,14.3
11,CC(C)OC(=O)OCOC(=O)c1c(F)ccc2c1OB(O)[C@@H]1C[C@H]21,> 30
12,CC(=O)OCOC(=O)c1c(F)ccc2c1OB(O)[C@@H]1C[C@H]21,8
13,CCCC(=O)OCOC(=O)c1c(F)ccc2c1OB(O)[C@@H]1C[C@H]21,28
14,CC(C)C(=O)OCOC(=O)c1c(F)ccc2c1OB(O)[C@@H]1C[C@H]21,9
15,CN(C)C(=O)COC(=O)c1c(F)ccc2c1OB(O)[C@@H]1C[C@H]21,> 30
16,CN(C)C(=O)COC(=O)OCOC(=O)c1c(F)ccc2c1OB(O)[C@@H]1C[C@H]21,> 30

# Assay: Half life in rat liver microsomes measured upto 30 min in presence of NADPH by HPLC analysis
# Format: ADME, Microsome
# Settings: not given
row,Compound,half-life [min]
1,CC(=O)OCOC(=O)c1c(F)ccc2c1OB(O)[C@@H]1C[C@H]21,3
2,CCCC(=O)OCOC(=O)c1c(F)ccc2c1OB(O)[C@@H]1C[C@H]21,3
3,CC(C)C(=O)OCOC(=O)c1c(F)ccc2c1OB(O)[C@@H]1C[C@H]21,5

# Assay: Half life in dog liver microsomes measured upto 30 min in presence of NADPH by HPLC analysis
# Format: ADME, Canis lupus familiaris, Microsome
# Settings: not given
row,Compound,half-life [min]
1,CC(=O)OCOC(=O)c1c(F)ccc2c1OB(O)[C@@H]1C[C@H]21,15
2,CCCC(=O)OCOC(=O)c1c(F)ccc2c1OB(O)[C@@H]1C[C@H]21,11
3,CC(C)C(=O)OCOC(=O)c1c(F)ccc2c1OB(O)[C@@H]1C[C@H]21,23

# Assay: Half life in monkey liver microsomes measured upto 30 min in presence of NADPH by HPLC analysis
# Format: ADME, Macaca mulatta, Microsome
# Settings: rhesus monkey
row,Compound,half-life [min]
1,CC(=O)OCOC(=O)c1c(F)ccc2c1OB(O)[C@@H]1C[C@H]21,3
2,CCCC(=O)OCOC(=O)c1c(F)ccc2c1OB(O)[C@@H]1C[C@H]21,2
3,CC(C)C(=O)OCOC(=O)c1c(F)ccc2c1OB(O)[C@@H]1C[C@H]21,2

# Assay: Oral bioavailability in rat at 30 mg/kg by LC/MS/MS analysis
# Format: ADME, organism-based
# Settings: in vivo
row,Compound,bioavailability [%]
1,CC(=O)OCOC(=O)c1c(F)ccc2c1OB(O)[C@@H]1C[C@H]21,131
2,CCCC(=O)OCOC(=O)c1c(F)ccc2c1OB(O)[C@@H]1C[C@H]21,145
3,CC(C)C(=O)OCOC(=O)c1c(F)ccc2c1OB(O)[C@@H]1C[C@H]21,125

# Assay: Oral bioavailability in dog at 10 mg/kg by LC/MS/MS analysis
# Format: ADME, organism-based, Canis lupus familiaris
# Settings: in vivo
row,Compound,bioavailability [%]
1,CC(=O)OCOC(=O)c1c(F)ccc2c1OB(O)[C@@H]1C[C@H]21,50.1
2,CCCC(=O)OCOC(=O)c1c(F)ccc2c1OB(O)[C@@H]1C[C@H]21,55.6
3,CC(C)C(=O)OCOC(=O)c1c(F)ccc2c1OB(O)[C@@H]1C[C@H]21,65

# Assay: Oral bioavailability in monkey at 20 mg/kg by LC/MS/MS analysis
# Format: ADME, organism-based, Macaca mulatta
# Settings: rhesus monkey, in vivo
row,Compound,bioavailability [%]
1,CC(=O)OCOC(=O)c1c(F)ccc2c1OB(O)[C@@H]1C[C@H]21,103
2,CCCC(=O)OCOC(=O)c1c(F)ccc2c1OB(O)[C@@H]1C[C@H]21,104
3,CC(C)C(=O)OCOC(=O)c1c(F)ccc2c1OB(O)[C@@H]1C[C@H]21,106

# Assay: Solubility of compound in water at pH 7.2 using crystalline sample
# Format: physicochemical
# Settings: not given
row,Compound,solubility [mg/mL]
1,CC(C)C(=O)OCOC(=O)c1c(F)ccc2c1O[B-](O)(O)[C@@H]1C[C@H]21.[Na+],> 100

# Assay: Solubility of compound in water in presence of 0.5 M PBS at pH 7.0 using crystalline sample
# Format: physicochemical
# Settings: water with 0.5 M PBS
row,Compound,solubility thermodynamic [mg/mL]
1,CC(C)C(=O)OCOC(=O)c1c(F)ccc2c1O[B-](O)(O)[C@@H]1C[C@H]21.[Na+],10.6

# Assay: Solubility of the compound in FaSSIF using crystalline sample
# Format: physicochemical
# Settings: not given
row,Compound,solubility thermodynamic [mg/mL]
1,CC(C)C(=O)OCOC(=O)c1c(F)ccc2c1O[B-](O)(O)[C@@H]1C[C@H]21.[Na+],> 100

# Assay: Solubility of the compound in FeSSIF using crystalline sample
# Format: physicochemical
# Settings: not given
row,Compound,solubility thermodynamic [mg/mL]
1,CC(C)C(=O)OCOC(=O)c1c(F)ccc2c1O[B-](O)(O)[C@@H]1C[C@H]21.[Na+],> 100

# Assay: Lipophilicity, logD of compound at pH 7.4
# Format: physicochemical
# Settings: buffer
row,Compound,logD
1,CC(C)C(=O)OCOC(=O)c1c(F)ccc2c1O[B-](O)(O)[C@@H]1C[C@H]21.[Na+],0.33

# Assay: Acid dissociation constant, pKa of the compound
# Format: physicochemical
# Settings: not given
row,Compound,pKa
1,CC(C)C(=O)OCOC(=O)c1c(F)ccc2c1O[B-](O)(O)[C@@H]1C[C@H]21.[Na+],4.8
